Assay results published in patent US11286268B1, “EIF4E-inhibiting compounds and methods” (EFFECTOR THERAPEUTICS, INC., priority 2019, dated 2022).
Like-named read-outs stand apart in the source and are kept apart here.

Biological target: recombinant eIF4E (Homo sapiens (Human), UniProt P06730)
Assay: Fluorescence polarization competition assay for eIF4E binding potency
In short: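 FP readout; IC50 fit from 8-point, 3-fold series. 75 nM eIF4E + 20 nM ATTO-550-labelled m7GDP probe, Tris pH 7.5/NaCl/DTT/Tween buffer, 1% DMSO final. 30 min RT equilibration, light-protected.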

[1] = fluorescence polarization competition, 75 nM recombinant eIF4E, 20 nM EDA-m7GDP-ATTO-550, IC50 class, read-out: elF4E FP
[2] = inhibition of eIF4E/EDA-m7GDP-ATTO-550 binding by 50%, Table 4B calculated values, read-out: IC50

recombinant eIF4E, sequence (P06730 whole entry): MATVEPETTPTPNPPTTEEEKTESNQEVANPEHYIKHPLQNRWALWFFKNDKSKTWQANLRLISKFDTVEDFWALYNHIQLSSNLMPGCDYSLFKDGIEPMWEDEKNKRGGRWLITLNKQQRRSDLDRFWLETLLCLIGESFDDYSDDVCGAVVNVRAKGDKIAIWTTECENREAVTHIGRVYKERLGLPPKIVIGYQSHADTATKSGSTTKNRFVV

IC50 [1]	IC50 [2]	SMILES
50 to 1000 nM	166 nM	Cc1nc2cnc(C3CC3)c(C#N)c2c(=O)n1CCOc1ccc(Cl)cc1Cc1cc(C(=O)O)cs1 [compound 970]
50 to 1000 nM	57.8 nM	Cc1cc(-c2cc(Cl)ccc2OCCn2c(C)nc3cnc(N(C)CC(F)(F)F)c(C#N)c3c2=O)c2scc(C(=O)O)c2n1 [compound 971]
< 50 nM	9.77 nM	Cc1cc(-c2cc(Cl)ccc2OCCn2c(C)nc3cnc(NCC(F)(F)F)c(C#N)c3c2=O)c2scc(C(=O)O)c2n1 [compound 972]
50 to 1000 nM	85 nM	Cc1cc(-c2cc(Cl)ccc2OCCn2c(C)nc3cnc(N(C)CC(F)F)c(C#N)c3c2=O)c2scc(C(=O)O)c2n1 [compound 973]
< 50 nM	23.6 nM	Cc1cc(-c2cc(Cl)ccc2OCCn2c(C)nc3cnc(NCC(F)F)c(C#N)c3c2=O)c2scc(C(=O)O)c2n1 [compound 974]
< 50 nM	19 nM	CON(C)c1ncc2nc(C)n(CCOc3ccc(Cl)cc3-c3cc(C)nc4c(C(=O)O)csc34)c(=O)c2c1C#N [compound 976]
< 50 nM	14.4 nM	Cc1cc(-c2cc(Cl)ccc2OCCn2c(C)nc3cnc(N4CCCC4=O)c(C#N)c3c2=O)c2scc(C(=O)O)c2n1 [compound 977]
< 50 nM	20.7 nM	Cc1cc(-c2cc(Cl)ccc2OCCn2c(C)nc3cnc(N(C)N(C)C)c(C#N)c3c2=O)c2scc(C(=O)O)c2n1 [compound 978]
< 50 nM	9.48 nM	Cc1cc(-c2cc(Cl)ccc2OCCn2c(C)nc3cnc(NN(C)C)c(C#N)c3c2=O)c2scc(C(=O)O)c2n1 [compound 979]
< 50 nM	15.6 nM	COC(=O)c1csc2c(-c3cc(Cl)ccc3C#CCn3c(C)nc4cnc(N(C)C5CCN(CC(C)(F)F)CC5)c(C#N)c4c3=O)ccnc12 [compound 980]
< 50 nM	20.4 nM	Cc1cc(-c2cc(Cl)ccc2OCCn2c(C)nc3cnc(N4CCc5ccccc54)c(C#N)c3c2=O)c2scc(C(=O)O)c2n1 [compound 982]
< 50 nM	18.9 nM	Cc1cc(-c2cc(Cl)ccc2OCCn2c(C)nc3cnc(-n4ccc5ccccc54)c(C#N)c3c2=O)c2scc(C(=O)O)c2n1 [compound 983]
< 50 nM	11.5 nM	Cc1cc(-c2cc(Cl)ccc2OCCn2c(C)nc3cnc(-n4cccn4)c(C#N)c3c2=O)c2scc(C(=O)O)c2n1 [compound 984]
< 50 nM	6.69 nM	CNc1ncc2nc(C)n(CCOc3ccc(Cl)cc3-c3cc(C)nc4c(C(=O)O)csc34)c(=O)c2c1C#N [compound 985]
< 50 nM	16.9 nM	Cc1cc(-c2cc(Cl)ccc2OCCn2c(C)nc3cnc(N(C)c4ccccc4)c(C#N)c3c2=O)c2scc(C(=O)O)c2n1 [compound 986]
< 50 nM	13.6 nM	Cc1cc(-c2cc(Cl)ccc2OCCn2c(C)nc3c(-c4ccccc4)nc(N(C)C)c(C#N)c3c2=O)c2scc(C(=O)O)c2n1 [compound 987]
< 50 nM	21.9 nM	COC(C)c1ncc2nc(C)n(CCOc3ccc(Cl)cc3-c3cc(C)nc4c(C(=O)O)csc34)c(=O)c2c1C#N (stereo not drawn) [compound 988]
< 50 nM	19.8 nM	C=C(c1ncc2nc(C)n(CCOc3ccc(Cl)cc3-c3cc(C)nc4c(C(=O)O)csc34)c(=O)c2c1C#N)C(F)(F)F [compound 989]
< 50 nM	32.2 nM	Cc1cc(-c2cc(Cl)ccc2OCCn2c(C)nc3cc(C(F)(F)F)c(-c4nccnc4C(F)(F)F)nc3c2=O)c2scc(C(=O)O)c2n1 [compound 990]
< 50 nM	12.1 nM	Cc1cc(-c2cc(Cl)ccc2OCCn2c(C)nc3cc(C(F)(F)F)c(N4CCC(Cl)CC4)c(C#N)c3c2=O)c2scc(C(=O)O)c2n1 [compound 991]
50 to 1000 nM	56.1 nM	Cc1cc(-c2cc(Cl)ccc2OCCn2c(C)nc3cc(C(F)(F)F)c(N4CCSCC4)c(C#N)c3c2=O)c2scc(C(=O)O)c2n1 [compound 992]
< 50 nM	15.6 nM	Cc1cc(-c2cc(Cl)ccc2OCCn2c(C)nc3cnc(-c4ccc5ncsc5c4)c(C#N)c3c2=O)c2scc(C(=O)O)c2n1 [compound 993]
< 50 nM	23.4 nM	Cc1cc(-c2cc(Cl)ccc2OCCn2c(C)nc3cnc(C4CC4C(F)(F)F)c(C#N)c3c2=O)c2scc(C(=O)O)c2n1 (stereo not drawn) [compound 994]
< 50 nM	15.7 nM	Cc1cc(-c2cc(Cl)ccc2OCCn2c(C)nc3cc(C(F)(F)F)c(-c4nc(C(F)F)ccc4F)c(C#N)c3c2=O)c2scc(C(=O)O)c2n1 [compound 995]
< 50 nM	31.6 nM	Cc1cc(-c2cc(Cl)ccc2OCCn2c(C)nc3cc(C(F)(F)F)c(N(C)C)c(C#N)c3c2=O)c2scc(C(=O)O)c2n1 [compound 996]
< 50 nM	12.2 nM	Cc1cc(-c2cc(Cl)ccc2OCCn2c(C)nc3c(C)nc(-c4cc(Cl)ccc4F)c(C#N)c3c2=O)c2scc(C(=O)O)c2n1 [compound 997]

IC50 [1]	IC50 [2]	SMILES
< 50 nM	45.1 nM	Cc1cc(-c2cc(Cl)ccc2OCCn2c(C)nc3c(C)nc(-c4cc(F)ccc4F)c(C#N)c3c2=O)c2scc(C(=O)O)c2n1 [compound 998]
< 50 nM	16.3 nM	Cc1cc(-c2cc(Cl)ccc2OCCn2c(C)nc3c(C)nc(-c4cc(F)ccc4Cl)c(C#N)c3c2=O)c2scc(C(=O)O)c2n1 [compound 999]
< 50 nM	16.7 nM	Cc1ccc(F)c(-c2ncc3cc(C)n(CCOc4ccc(Cl)cc4-c4cc(C)nc5c(C(=O)O)csc45)c(=O)c3c2C#N)n1 [compound 1000]
< 50 nM	31.2 nM	Cc1cc(-c2cc(Cl)ccc2OCCn2c(C)cc3cnc(-c4cc(F)cnc4C)c(C#N)c3c2=O)c2scc(C(=O)O)c2n1 [compound 1001]
< 50 nM	2.37 nM	Cc1cc(-c2cc(Cl)ccc2OCCn2c(C)cc3cnc(N(C)C)c(C#N)c3c2=O)c2scc(C(=O)O)c2n1 [compound 1002]
< 50 nM	13.4 nM	Cc1cc(-c2cc(Cl)ccc2OCCn2c(C)cc3cnc(N4CCC4)c(C#N)c3c2=O)c2scc(C(=O)O)c2n1 [compound 1003]
< 50 nM	22.5 nM	Cc1cc(-c2cc(Cl)ccc2OCCn2c(C)nc3cnc(O)c(C#N)c3c2=O)c2scc(C(=O)O)c2n1 [compound 1004]
< 50 nM	33.4 nM	Cc1cc(-c2cc(Cl)ccc2OCCn2c(C)nc3cn(C)c(=O)c(C#N)c3c2=O)c2scc(C(=O)O)c2n1 [compound 1005]
< 50 nM	18.2 nM	Cc1cc(-c2cc(Cl)ccc2OCCn2c(C)nc3cc(Cl)c(-c4ncco4)c(C#N)c3c2=O)c2scc(C(=O)O)c2n1 [compound 1006]
< 50 nM	48.2 nM	Cc1cc(-c2cc(Cl)ccc2OCCn2c(C)nc3cc(C(F)(F)F)c[n+]([O-])c3c2=O)c2scc(C(=O)O)c2n1 [compound 1007]
< 50 nM	15.3 nM	Cc1cc(-c2cc(Cl)ccc2OCCn2c(C)nc3c(-c4ccccc4)nc(N4CCC4)c(C#N)c3c2=O)c2scc(C(=O)O)c2n1 [compound 1008]
< 50 nM	6.23 nM	COC1CN(c2c(C(F)(F)F)cc3nc(C)n(CCOc4ccc(Cl)cc4-c4cc(C)nc5c(C(=O)O)csc45)c(=O)c3c2C#N)C1 [compound 1009]
< 50 nM	5.29 nM	COC1CN(c2ncc3nc(C)n(CCOc4ccc(Cl)cc4-c4cc(C)nc5c(C(=O)O)csc45)c(=O)c3c2C#N)C1 [compound 1010]
< 50 nM	7.15 nM	Cc1cc(-c2cc(Cl)ccc2OCCn2c(C)nc3cnc(N4CC(O)C4)c(C#N)c3c2=O)c2scc(C(=O)O)c2n1 [compound 1011]
< 50 nM	8.94 nM	CCc1cc(-c2cc(Cl)ccc2OCCn2c(C)nc3cc(C(F)(F)F)c(-c4ccncc4)c(C#N)c3c2=O)c2scc(C(=O)O)c2n1 [compound 1012]
< 50 nM	18.5 nM	CCc1cc(-c2cc(Cl)ccc2OCCn2c(C)nc3cc(C(F)(F)F)c(-c4cccnc4)c(C#N)c3c2=O)c2scc(C(=O)O)c2n1 [compound 1013]
< 50 nM	25.6 nM	CCc1cc(-c2cc(Cl)ccc2OCCn2c(C)nc3cc(C(F)(F)F)c(-c4ccn(C)n4)c(C#N)c3c2=O)c2scc(C(=O)O)c2n1 [compound 1014]
< 50 nM	19.7 nM	CCc1cc(-c2cc(Cl)ccc2OCCn2c(C)nc3c(C)nc(-c4ccccc4)c(C#N)c3c2=O)c2scc(C(=O)O)c2n1 [compound 1015]
< 50 nM	1.11 nM	CCc1cc(-c2cc(Cl)ccc2OCCn2c(C)nc3cnc(-c4ccccc4)c(C#N)c3c2=O)c2scc(C(=O)O)c2n1 [compound 1016]
< 50 nM	8.26 nM	CCc1cc(-c2cc(Cl)ccc2OCCn2c(C)nc3cc(C(F)(F)F)c(-c4cc(F)cnc4C)c(C#N)c3c2=O)c2scc(C(=O)O)c2n1 [compound 1017]
< 50 nM	6.71 nM	Cc1cnc(-c2nc3c(=O)n(CCOc4ccc(Cl)cc4-c4cc(C)nc5c(C(=O)O)csc45)c(C)nc3cc2C(F)(F)F)cn1 [compound 1018]
< 50 nM	30.8 nM	Cc1cc(-c2cc(Cl)ccc2OCCn2c(C)nc3cc(C(F)(F)F)c(-c4nccnc4C)nc3c2=O)c2scc(C(=O)O)c2n1 [compound 1019]
< 50 nM	23.4 nM	Cc1cc(-c2cc(Cl)ccc2OCCn2c(C)nc3cc(C(F)(F)F)c(-c4cnc(C(F)F)cn4)nc3c2=O)c2scc(C(=O)O)c2n1 [compound 1020]
< 50 nM	21.1 nM	Cc1cc(-c2cc(Cl)ccc2OCCn2c(C)nc3cc(C(F)(F)F)c(-c4cncc(C(F)(F)F)n4)nc3c2=O)c2scc(C(=O)O)c2n1 [compound 1021]
< 50 nM	42.4 nM	Cc1cnc(C)c(-c2nc3c(=O)n(CCOc4ccc(Cl)cc4-c4cc(C)nc5c(C(=O)O)csc45)c(C)nc3cc2C(F)(F)F)n1 [compound 1022]
